System: Echinochloa crusgalli, Scirpus juncoides, Bidens tripartita L. and Sagittaria trifolia
Assay: Weed control effect evaluation in rice field
Assay type: in vivo
Conditions: weeds collected from Heilongjiang Province of China
Experimental: Transplanted rice safety evaluation and weed control effect evaluation in rice field:
Rice field soil was loaded into a 1/1,000,000 ha pot. The seeds of Echinochloa crusgalli, Scirpus juncoides, and Bidens tripartita L. were sowed and gently covered with soil, then left to stand still in greenhouse in the state of 0.5-1 cm of water storage. The tuber of Sagittaria trifolia was planted in the next day or 2 days later. It was kept at 3-4 cm of water storage thereafter. The weeds were treated by dripping the WP or SC water diluents prepared according to the common preparation method of the compounds of the present invention with pipette homogeneously to achieve specified effective amount when Echinochloa crusgalli, Scirpus juncoides, and Bidens tripartita L. reached 0.5 leaf stage and Sagittaria trifolia reached the time point of primary leaf stage.
The fertility condition of Echinochloa crusgalli, Scirpus juncoides, Bidens tripartita L. and Sagittaria trifolia 14 days after the treatment of the compound of the invention and the fertility condition of rice 21 days after the treatment of the compound of the invention respectively with the naked eye. Evaluate the weed control effect with the above activity standard level. Many compounds show excellent activity and selectivity. […]

CCOC(=O)c1cnn(C)c1S(=O)(=O)NC(=O)Nc1nc(OC)cc(OC)n1 [Pyrazosulfuron-ethyl]
response of the test weeds to common doses: resistant

— patent publication US20230072860A1, “ISOXAZOLINE OXIME FORMATE COMPOUND, PREPARATION METHOD THEREFOR, HERBICIDAL COMPOSITION AND USE THEREOF” (QINGDAO KINGAGROOT CHEMICAL COMPOUND CO., LTD., priority 2020, published 2023)
